The term pIC50 denotes −log10 of the IC50, conventionally taken in molar units.

Here are results for twelve compounds from US7838674B2, “Tetracyclic lactame derivatives” (Novartis AG, priority 2007, dated 2010).

The target in this test is human MK2 (Homo sapiens, UniProt P49137). In words: MAPKAPK2 kinase assay (TR-FRET, Hsp27 peptide substrate). A general note: TR-FRET usually uses a lanthanide donor and a delayed reading to cut background.

pIC50: −log10 of the molar value. Where a name gives a salt, the structure may show the parent alone.

Chain of human MK2 (P49137 whole entry): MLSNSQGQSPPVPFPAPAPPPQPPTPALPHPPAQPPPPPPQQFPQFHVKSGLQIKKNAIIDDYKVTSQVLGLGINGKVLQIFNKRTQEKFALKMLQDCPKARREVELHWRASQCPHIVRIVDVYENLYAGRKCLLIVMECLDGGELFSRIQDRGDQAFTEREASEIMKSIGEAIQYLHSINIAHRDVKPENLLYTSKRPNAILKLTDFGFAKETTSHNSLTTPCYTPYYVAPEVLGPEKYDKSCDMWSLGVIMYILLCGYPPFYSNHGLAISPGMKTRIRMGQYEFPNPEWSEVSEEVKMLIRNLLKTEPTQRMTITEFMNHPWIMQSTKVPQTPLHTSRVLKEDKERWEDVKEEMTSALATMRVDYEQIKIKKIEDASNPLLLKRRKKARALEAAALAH

`Cn1c2c(c3c1C1(CNC1)CNC3=O)CCc1cnc(-c3ccc(C(F)(F)F)nc3)cc1-2` [Example 169, 2-(3-Aminomethyl-azetidin-3-yl)-8-(6-trifluoromethyl-pyridin-3-yl)-1-methyl-4,5-dihydro-1H-pyrrolo[2,3-f]isoquinoline-3-carboxylic acid lactam hydrochloride] showed a negative-log IC50 (pIC50) of 7.03. With `COc1ccc(-c2cc3c(cn2)CCc2c-3[nH]c3c2C(=O)NC2(CC2)C3)cn1` [Example 88, 2-(1-Amino-cyclopropylmethyl)-8-(6-methoxy-pyridin-3-yl)-4,5-dihydro-1H-pyrrolo[2,3-f]isoquinoline-3-carboxylic acid lactam], the pIC50 was 7.42. Take `O=C(NCc1ccccc1)c1cccc(-c2cc3c(cn2)CCc2c-3[nH]c3c2C(=O)NC2(CC2)C3)c1` [Example 276, 2-(1-Amino-cyclopropylmethyl)-8-(3-benzylcarbamoyl)-phenyl-4,5-dihydro-1H-pyrrolo[2,3-f]isoquinoline-3-carboxylic acid lactam]: the pIC50 was 7.96. `COc1cncc(-c2cc3c(cn2)CCc2c-3[nH]c3c2C(=O)NC2(CC2)C3)c1` [Example 87, 2-(1-Amino-cyclopropylmethyl)-8-(5-methoxy-pyridin-3-yl)-4,5-dihydro-1H-pyrrolo[2,3-f]isoquinoline-3-carboxylic acid lactam] showed a pIC50 of 7.38.

Compound `C[C@H](NC(=O)c1cccc(-c2cc3c(cn2)CCc2c-3[nH]c3c2C(=O)NC2(CC2)C3)c1)c1ccccc1` [Example 275] had a pIC50 of 7.70. On to `COc1ccc(-c2cc3c(cn2)CCc2c-3nn3c2C(=O)NC2(CN(C(C)=O)C2)C3)cc1` [Example 12, 2-(1-Acetyl-3-amino-azetidin-3-ylmethyl)-8-(4-methoxy-phenyl)-4,5-dihydro-2H-1,2,7-triaza-cyclopenta[a]naphthalene-3-carboxylic acid lactame], for which the negative-log IC50 (pIC50) is under 8.00. For `CN1CC2(CNC(=O)c3c2[nH]c2c3CCc3cnc(-c4ccc(C(F)(F)F)nc4)cc3-2)C1` [Example 168, 2-(3-Aminomethyl-1-methyl-azetidin-3-yl)-8-(6-trifluoromethyl-pyridin-3-yl)-4,5-dihydro-1H-pyrrolo[2,3-f]isoquinoline-3-carboxylic acid lactam] the value was 7.85; for `O=C1NC2(CCC2)Cc2[nH]c3c(c21)CCc1cnc(/C=C/c2ccccc2)cc1-3` [Example 4, 2-(1-Amino-cyclobutylmethyl)-8-((E)-styryl)-4,5-dihydro-1H-pyrrolo[2,3-f]isoquinoline-3-carboxylic acid lactame], 7.19. The same measure for `O=C1NC2(CCC2)Cc2[nH]c3c(c21)CCc1cnc(-c2cncc(OC4CCOCC4)c2)cc1-3` [Example 109, 2-(1-Amino-cyclobutylmethyl)-8-[5-(tetrahydro-pyran-4-yloxy)-pyridin-3-yl]-4,5-dihydro-1H-pyrrolo[2,3-f]isoquinoline-3-carboxylic acid lactam]: 7.38; for `O=C1NCC2(CNC2)c2[nH]c3c(c21)CCc1cnc(-c2ccc(C(F)(F)F)nc2)cc1-3` [Example 166, 2-(3-Aminomethyl-azetidin-3-yl)-8-(6-trifluoromethyl-pyridin-3-yl)-4,5-dihydro-1H-pyrrolo[2,3-f]isoquinoline-3-carboxylic acid lactam hydrochloride]: 8.15. For `O=C1NC2(CC2)Cc2[nH]c3c(c21)CCc1cnc(-c2ccc(N4CCCCC4)nc2)cc1-3` [Example 83, 2-(1-Amino-cyclopropylmethyl)-8-(3,4,5,6-tetrahydro-2H-[1,2′]bipyridinyl-5′-yl)-4,5-dihydro-1H-pyrrolo[2,3-f]isoquinoline-3-carboxylic acid lactam], the pIC50 is 7.14.

The compound `N#Cc1cc(-c2cc3c(cn2)CCc2c-3[nH]c3c2C(=O)NCC32CC2)ccc1N1CCOCC1` [Example 307, 2-Morpholin-4-yl-5-(7-oxo-10-spirocyclopropyl-6,7,8,9,10,11-hexahydro-5H-3,8,11-triaza-benzo[a]fluoren-2-yl)-benzonitrile] had a pIC50 of 7.85.
